Reference: paper PMC4926143 (Toxins, 2016)
Values after ≈ are worked out from the molar mass of the structure shown. “Also recorded” adds a separate entry of the source. Like-named read-outs stand apart in the source and are kept apart here.

What was measured:
[1] = system: aflatoxin production; conditions: cited from earlier work
[2] = target: T1, bovine heart mitochondrial complex II (Bos taurus, UniProt P31039+P35720+Q3T189+Q95123); test: MitoCheck Complex II Activity Assay (succinate dehydrogenase activity); type: biochemical; conditions: bovine heart mitochondria
T1 construct: bovine heart mitochondrial complex II; purchased Cayman Chemical; host or cells: bovine heart mitochondria (native tissue preparation supplied in the kit)
T1 sequence (P31039 44-665): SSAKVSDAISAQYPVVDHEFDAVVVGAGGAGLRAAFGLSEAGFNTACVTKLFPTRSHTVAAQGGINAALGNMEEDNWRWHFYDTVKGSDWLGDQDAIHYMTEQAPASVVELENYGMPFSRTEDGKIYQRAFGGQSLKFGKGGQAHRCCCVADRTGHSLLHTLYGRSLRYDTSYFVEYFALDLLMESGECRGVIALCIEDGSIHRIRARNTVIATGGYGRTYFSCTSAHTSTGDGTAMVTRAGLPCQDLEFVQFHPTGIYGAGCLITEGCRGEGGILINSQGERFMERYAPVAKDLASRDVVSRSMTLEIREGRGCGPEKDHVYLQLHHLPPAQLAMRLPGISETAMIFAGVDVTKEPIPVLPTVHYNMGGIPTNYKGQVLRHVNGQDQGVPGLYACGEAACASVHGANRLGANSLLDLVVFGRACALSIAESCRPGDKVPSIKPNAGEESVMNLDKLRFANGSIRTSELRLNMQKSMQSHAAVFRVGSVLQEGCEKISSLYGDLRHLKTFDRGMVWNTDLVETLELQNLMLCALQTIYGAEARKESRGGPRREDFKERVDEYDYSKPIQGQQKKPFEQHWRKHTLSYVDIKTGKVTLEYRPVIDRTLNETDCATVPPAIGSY
T1 sequence (Q3T189 29-280): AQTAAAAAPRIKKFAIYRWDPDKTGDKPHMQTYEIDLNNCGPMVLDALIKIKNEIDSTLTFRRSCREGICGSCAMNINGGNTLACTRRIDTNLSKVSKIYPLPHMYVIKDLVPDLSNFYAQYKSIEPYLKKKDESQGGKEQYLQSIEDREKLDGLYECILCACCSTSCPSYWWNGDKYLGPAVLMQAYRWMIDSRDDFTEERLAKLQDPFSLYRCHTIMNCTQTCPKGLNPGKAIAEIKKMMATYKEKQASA
T1 sequence (P35720 30-169): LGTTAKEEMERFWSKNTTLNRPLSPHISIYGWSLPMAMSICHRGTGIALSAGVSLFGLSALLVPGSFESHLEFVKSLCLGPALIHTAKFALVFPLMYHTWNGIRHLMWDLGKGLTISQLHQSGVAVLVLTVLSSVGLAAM
T1 sequence (Q95123 56-158): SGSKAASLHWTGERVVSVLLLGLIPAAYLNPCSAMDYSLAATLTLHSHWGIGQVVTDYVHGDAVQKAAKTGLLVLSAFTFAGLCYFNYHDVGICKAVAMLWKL

[3] = system: Aspergillus flavus IMF 47798; type: cell-based
[4] = system: aflR and pksA mRNA; test: RT-qPCR of aflR and pksA mRNA levels in A. flavus; type: cell-based, Aspergillus flavus; conditions: 0.05 mM, normalized to β-tubulin mRNA
Experimental: To test the effects of three octyl esters on the mRNA levels of aflR and pksA, A. flavus was cultured with octyl syringate (8), octyl paraben (12), or octyl gallate (14) at the concentrations of 0.05 mM. Subsequently, aflR and pksA mRNA levels were examined by quantitative PCR.
The lyophilized mycelia were ground under liquid nitrogen using a mortar and pestle. Total RNA was extracted with TRIzol reagent (Thermo Fisher Scientific, Waltham, MA, USA) and purified with the PureLink RNA Mini Kit (Thermo Fisher Scientific), according to manufacturer’s protocol. The cDNA was prepared with the ReverTra Ace qPCR RT Master Mix (TOYOBO, Osaka, Japan), according to manufacturer’s protocol. The cDNA derived from 0.05 μg of total RNA was used as a qPCR template. qPCR was carried out using FastStart Universal SYBR Green Master (Rox) (Roche, Basel, Switzerland) in a final volume of 25 μL for each reaction and an ABI 7300 Real-Time PCR System (Thermo Fisher Scientific). Two-step PCR conditions were as follows: after an initial incubation at 95 °C for 10 min, 40 cycles of 95 °C for 15 s and 60 °C for 1 min were performed. The amount of aflR and pksA mRNA were normalized to the amount of β-tubulin mRNA (control gene) in each sample. PCR primers used for each gene were as follows: β-tubulin 5′-[…]-3′ and 5′-[…]-3′; AflR 5′-[…]-3′ and 5′-[…]-3′; pksA 5′-[…]-3′ and 5′-[…]-3′.

[5] = system: Aspergillus flavus IMF 47798; type: cell-based; remark: listed apart in the source
[6] = system: A. flavus; conditions: cited from earlier work
[7] = system: A. flavus ATCC 9170; set-up: method as in PMID 19232493; conditions: cited from earlier work
[8] = read-out: IC50, mitochondrial complex II

COc1[nH]c(=O)c(C(=O)[C@@H](C)C[C@H](C)[C@@H](Cl)CCl)c(O)c1OC [atpenin A5]
inhibition of aflatoxin production by complex II inhibitors [1]: inhibited aflatoxin production with selectivity

O=C(Nc1ccccc1-c1ccc(Cl)cc1)c1cccnc1Cl [boscalid]
inhibition of aflatoxin production by complex II inhibitors [1]: inhibited aflatoxin production with selectivity
IC50 ([1]; read-out: IC50 of aflatoxin production inhibition): < 0.01 µM
IC50 [2, 8]: 19 µM

CCOC(=O)c1cc(OC)c(O)c(OC)c1 [compound 2, Ethyl syringate]
inhibition of aflatoxin production [3]: did not inhibit aflatoxin production
IC50 ([2]; highest concentration 20 mM, read-out: IC50, mitochondrial complex II (symbol)): > 20000 µM

CCCOC(=O)c1cc(OC)c(O)c(OC)c1 [compound 3, propyl syringate]
inhibition of aflatoxin production [3]: did not inhibit aflatoxin production
IC50 [2, 8]: > 20000 µM

CCCCOC(=O)c1cc(OC)c(O)c(OC)c1 [compound 4, butyl syringate]
inhibition of aflatoxin production [3]: strong inhibitory activity
IC50 [2, 8]: 9700 µM

CCCCCOC(=O)c1cc(OC)c(O)c(OC)c1 [compound 5, pentyl syringate]
inhibition of aflatoxin production [3]: inhibited aflatoxin production very strongly
IC50 [2, 8]: 2800 µM

CCCCCCOC(=O)c1cc(OC)c(O)c(OC)c1 [compound 6, hexyl syringate]
inhibition of aflatoxin production [3]: inhibited aflatoxin production very strongly
IC50 [2, 8]: 1100 µM

CCCCCCCOC(=O)c1cc(OC)c(O)c(OC)c1 [compound 7, heptyl syringate]
inhibition of aflatoxin production [3]: inhibited aflatoxin production very strongly
IC50 [2, 8]: 1300 µM

CCCCCCCCOC(=O)c1cc(OC)c(O)c(OC)c1 [compound 8, Octyl syringate]
aflR mRNA level [4]: None of the three octyl esters affected
pksA mRNA level [4]: None of the three octyl esters affected
fungal mycelial weight after five and six days of cultivation [5]: without changing
inhibition of aflatoxin production [3]: inhibited aflatoxin production very strongly
IC50 [2, 8]: 340 µM

CCOC(=O)c1ccc(O)cc1 [compound 9, ethyl paraben]
aflatoxin production inhibitory activity (comparison in words) [3]: weak

CCCOC(=O)c1ccc(O)cc1 [compound 10, Propyl paraben]
inhibition of aflatoxin production on a solid culture [6]: inhibit aflatoxin production
aflatoxin production inhibitory activity (comparison in words) [3]: more strongly than propyl syringate (3) and propyl gallate (15); also recorded: much weaker than that of heptyl paraben (11) and octyl paraben (12)
IC50 [2, 8]: > 20000 µM

CCCCCCCOC(=O)c1ccc(O)cc1 [compound 11, heptyl paraben]
effect on fungal growth [5]: did not affect fungal growth
aflatoxin production inhibitory activity after five and six days of cultivation [3]: maintained
inhibition of aflatoxin production [3]: strong

CCCCCCCCOC(=O)c1ccc(O)cc1 [compound 12, octyl paraben]
aflR mRNA level [4]: None of the three octyl esters affected
pksA mRNA level [4]: None of the three octyl esters affected
effect on fungal growth [5]: did not affect fungal growth
aflatoxin production inhibitory activity (comparison in words) [3]: strong
IC50 [2, 8]: 160 µM

CCCCCCCCOC(=O)c1cc(O)c(O)c(O)c1 [compound 14, Octyl gallate]
aflR mRNA level [4]: None of the three octyl esters affected
pksA mRNA level [4]: None of the three octyl esters affected
effect on fungal growth [5]: did not affect fungal growth
effect on mycelial weight [5]: reduced the mycelial weight
aflatoxin production inhibitory activity after five and six days of cultivation [3]: maintained
inhibition of aflatoxin production [3]: as strongly as octyl syringate (8) and octyl paraben (12); also recorded: strongly inhibited
IC50 [2, 8]: 290 µM
minimum inhibitory concentration (MIC) [7]: 63 µM (≈ 17.8 µg/mL)

Cc1ccccc1C(=O)Nc1cccc(OC(C)C)c1 [mepronil]
inhibition of aflatoxin production by complex II inhibitors [1]: inhibited aflatoxin production with selectivity

Cc1cc(O)c2c(c1)O[C@@]1(C)CC[C@H]3C(C)(C)CCC[C@]34CO[C@@H]2[C@H]41 [siccanin]
inhibition of aflatoxin production by complex II inhibitors [1]: inhibited aflatoxin production with selectivity
